# Test results published in US20140342913A1, “GENES PROVIDING TOLERANCE TO PDS INHIBITORS” (SYNGENTA PARTICIPATIONS AG, priority 2013, published 2014).
# Test system: 18900 transformants (soybean plants)
# Assay: Herbicide resistance of soybean transformants with stacked ADSS Q289N gene
# Type: in vivo
# Conditions: soybean transformed with 18900 (Rhodobacter CrtI + Arabidopsis ADSS Q289N)
# Description: In order to test expression of stacked genes when phytoene desaturease is used as selectable marker, we constructed several vectors with Anemonia majano cyan fluorescent protein gene AmCyan and herbicide resistance (ADSS) or detoxification (cytochrome P450) genes as examples. Binary transformation vector 18340 (FIG. 7) contains Gloeobacter CrtI expression cassette linked to an AmCyan expression cassette. 18340 was derived from insertion of prCMP-AmCyan-tNOS cassette into 18239. Similarly, binary transformation vector 18341 (FIG. 8) contains Rhodobacter CrtI and AmCyan expression cassettes and was constructed by inserting the prCMP-AmCyan-tNOS cassette into 18238. 18900 (FIG. 9) is a binary vector containing Rhodobacter CrtI expression cassette linked with an Arabidopsis adenylosuccinate synthase (ADSS) Q289N mutant expression cassette under the control of prCMP promoter. 18932 (FIG. 10) is a binary vector containing Rhodobacter CrtI expression cassette and an expression cassette for rice cytochrome P450 monooxygenase gene (Genbank accession # OSJNBb0048A17.18) under the control of prCMP promoter. […]
# Binary vectors 18340, […], 18900 and 18932 were transformed into soybean plants using norfurazon as selection agent. […] 18932 transformants were evaluated for their resistance against HPPD herbicide mesotrione.
smiles,measurement,value
O=C1NC(=O)[C@]2(N1)O[C@H](CO)[C@@H](O)[C@H]2O [hydantocidin],resistance of transformants to herbicidal compound,resistant
